Experimental data published in US20240174636A1, “NOVEL INDOLEAMINE 2,3-DIOXYGENASE INHIBITORS, PROCESSES FOR THE PREPARATION THEREOF AND PHARMACEUTICAL COMPOSITIONS COMPRISING THE SAME” (YUHAN CORPORATION, priority 2021, published 2024).

Assays:
IDO1 [1] = biological target: T1, IDO1 (Homo sapiens, UniProt P14902); experiment: IDO1 cellular activity using Hela cells (IFN-gamma induced IDO expression, kynurenine absorbance at 480 nm); assay type: cell-based; details: IDO induced with interferon gamma 50 ng/ml, 24 h compound incubation, read-out: Inhibitory Activity (IC50)
T1 sequence (P14902 whole entry): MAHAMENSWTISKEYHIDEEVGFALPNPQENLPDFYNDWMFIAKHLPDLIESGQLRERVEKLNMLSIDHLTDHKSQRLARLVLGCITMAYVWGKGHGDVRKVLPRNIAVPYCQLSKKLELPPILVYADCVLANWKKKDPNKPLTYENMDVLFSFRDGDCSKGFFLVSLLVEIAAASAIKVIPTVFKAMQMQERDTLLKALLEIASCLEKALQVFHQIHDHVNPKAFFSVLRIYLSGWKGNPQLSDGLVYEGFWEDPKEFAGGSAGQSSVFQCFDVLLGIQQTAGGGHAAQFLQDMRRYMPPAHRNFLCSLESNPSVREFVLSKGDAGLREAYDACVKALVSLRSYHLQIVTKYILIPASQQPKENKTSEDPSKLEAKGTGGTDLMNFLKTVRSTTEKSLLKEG
Description: Hela cells were seeded at a density of 20000 cells/well in 100 μl of a culture medium (EMEM supplemented with 10% FBS, penicillin 100 U/ml, and streptomycin 100 μg/ml) in a tissue culture-treated 96 well plate. The cells were cultured in a 5% carbon dioxide incubator for 24 hours, treated with recombinant human interferon gamma at the concentration of 50 ng/ml, and then cultured for 48 hours in a 5% carbon dioxide incubator to induce IDO expression.
The activities were measured using IDO1 cellular activity-measuring substrate (IDO1 cellular activity quickDetect supplements catalog: #62000-2, BPS Bioscience). Specifically, an assay medium was prepared by diluting IDO1 assay medium substrate 1 and IDO1 assay medium supplement 2 in a culture medium at a ratio of 1:100, respectively. The test compounds were diluted to the predetermined concentrations in the fresh assay medium. After removing the culture medium using a multi-pipet, 200 μl of each assay medium containing the test material was added into the respective well, followed by incubating in a 5% carbon dioxide incubator for 24 hours. The next day, 140 μl of culture medium from each well was transferred to a new 96-well plate. 10 μl of 6.1N trichloroacetic acid was added into each well, which was then cultured in a 50° C. incubator for 30 minutes. The plate was centrifuged at 2500 rpm for 10 minutes to settle any sediment. A detection reagent solution was prepared by diluting the detection reagent (component D kit, catalog: #62000-2, BPS Bioscience) 50-fold in acetic acid. 100 μl of the supernatant taken from the centrifuged plate was transferred to a new transparent 96-well plate and then 100 μl of the detection reagent solution was added thereto. After reacting at room temperature for 10 minutes, absorbance was measured at 480 nm wavelength. For analysis of the results, the absorbance (At) of the well containing Hela cells in which IDO protein expression was induced without treatment of an inhibitor was 100%; and the absorbance (Ab) of the well containing Hela cells in which IDO protein expression was not induced was 0. The % absorbance was calculated according to the following equation: % Absorbance=(A−Ab)/(At−Ab), A=absorbance of the well treated with the test compound.
The results obtained by calculating the 50% inhibitory concentration (C50) of each compound, from the absorbance values obtained as described above, are shown in Table 1 below.

IDO1 [2] = biological target: T1, IDO1; experiment: IDO1 cellular activity using HEK293 cells transfected with IDO1 expression vector; assay type: cell-based; set-up: host or cells: HEK293 cells, transient transfection with Lipofectamine 2000; details: 24 h compound incubation, read-out: Inhibitory Activity (IC50)
Description: HEK293 cells were seeded at a density of 30000 cells/well in 100 μl of a culture medium (DMEM supplemented with 10% FBS, penicillin 100 U/ml, and streptomycin 100 μg/ml) in a tissue culture-treated 96 well plate. The cells were cultured in a 5% carbon dioxide incubator for 24 hours, transfected with the IDO1 expression vector (component A in IDO1 cell-based assay kit, catalog #72031, BPS Bioscience) using Lipofectamine 2000 (Life Technologies, #11668027), and then cultured for 24 hours in a 5% carbon dioxide incubator to express the IDO protein.
The activities were measured using a IDO1 cell-based assay kit (catalog #72031, BPS Bioscience). Specifically, an assay medium was prepared by diluting IDO1 assay medium substrate 1 and IDO1 assay medium supplement 2 in a culture medium at a ratio of 1:100, respectively. The test compounds were diluted to the predetermined concentrations in the fresh assay medium. After removing the culture medium using a multi-pipet, 200 μl of each assay medium containing the test material was added into respective well, followed by incubating in a 5% carbon dioxide incubator for 24 hours. The next day, 140 μl of culture medium from each well was transferred to a new 96-well plate. 10 μl of 6.1N trichloroacetic acid was added into each well, which was then cultured in a 50° C. incubator for 30 minutes. The plate was centrifuged at 2500 rpm for 10 minutes to settle any sediment. A detection reagent solution was prepared by diluting the detection reagent (component D in IDO1 cell-based assay kit, catalog #72031 BPS Bioscience) 50-fold in acetic acid. 100 μl of the supernatant taken from the centrifuged plate was transferred to a new transparent 96-well plate and then 100 μl of the detection reagent solution was added thereto. After reacting at room temperature for 10 minutes, absorbance was measured at 480 nm wavelength. For analysis of the results, the absorbance (At) of the well containing HEK293 cells in which IDO protein was expressed without treatment of an inhibitor was 100%; and the absorbance (Ab) of the well containing HEK293 cells in which IDO protein was not expressed was 0. The % absorbance was calculated according to the following equation: % Absorbance=(A−Ab)/(At−Ab), A=absorbance of the well treated with the test compound.

Structure (SMILES) | IC50 (IDO1 [1]) [nM] | IC50 (IDO1 [2]) [nM]
COc1ccc2nc(N[C@H](C)C[C@H]3CC[C@@H](c4ccnc5ccc(F)cc54)CC3)oc2c1 [Example 26, N-((R)-1-((cis)-4-(6-fluoroquinolin-4-yl)cyclohexyl)propan-2-yl)-6-methoxybenzo[d]oxazol-2-amine] | 15 | 6.5
C[C@H](C[C@H]1CC[C@@H](c2ccnc3ccc(F)cc32)CC1)Nc1nc2cccc(Cl)c2s1 [Example 18, 7-chloro-N-((R)-1-((cis)-4-(6-fluoroquinolin-4-yl)cyclohexyl)propan-2-yl)benzo[d]thiazol-2-amine] | 7.5 | 4
C[C@H](C[C@H]1CC[C@H](c2ccnc3ccc(F)cc32)CC1)Nc1c(F)c(=O)oc2cc(Br)ccc12 [Example 12, 7-bromo-3-fluoro-4-(((R)-1-((trans)-4-(6-fluoroquinolin-4-yl)cyclohexyl)propan-2-yl)amino)-2H-chromen-2-one] | 7.2 | 11.2
C[C@H](C[C@H]1CC[C@@H](c2ccnc3ccc(F)cc32)CC1)Nc1cc(=O)oc2cc(Br)ccc12 [Example 9, 7-bromo-4-(((R)-1-((cis)-4-(6-fluoroquinolin-4-yl)cyclohexyl)propan-2-yl)amino)-2H-chromen-2-one] | 18 | –
COc1ccc2nc(N[C@@H](C[C@H]3CC[C@@H](c4ccnc5ccc(F)cc54)CC3)C3CC3)sc2c1 [Example 16, N-((S)-1-cyclopropyl-2-((cis)-4-(6-fluoroquinolin-4-yl)cyclohexyl)ethyl)-6-methoxybenzo[d]thiazol-2-amine] | 4 | –
C[C@H](C[C@H]1CC[C@@H](c2ccnc3ccc(F)cc32)CC1)Nc1c(F)c(=O)oc2cc(Br)ccc12 [Example 11, 7-bromo-3-fluoro-4-(((R)-1-((cis)-4-(6-fluoroquinolin-4-yl)cyclohexyl)propan-2-yl)amino)-2H-chromen-2-one] | 18.7 | 18.3
COc1ccc2nc(N[C@H](C)C[C@H]3CC[C@@H](c4ccnc5ccc(F)cc54)CC3)sc2n1 [Example 22, N-((R)-1-((cis)-4-(6-fluoroquinolin-4-yl)cyclohexyl)propan-2-yl)-5-methoxythiazolo[5,4-b]pyridin-2-amine] | 16 | 10.9
C[C@H](C[C@H]1CC[C@@H](c2ccnc3ccc(F)cc32)CC1)Nc1nc2ccccc2o1 [Example 24, N-((R)-1-((cis)-4-(6-fluoroquinolin-4-yl)cyclohexyl)propan-2-yl)benzo[d]oxazol-2-amine] | 17 | –
CCOc1ccc2nc(N[C@H](CC)C[C@H]3CC[C@@H](c4ccnc5ccc(F)cc54)CC3)sc2c1 [Example 20, 6-ethoxy-N-((R)-1-((cis)-4-(6-fluoroquinolin-4-yl)cyclohexyl)butan-2-yl)benzo[d]thiazol-2-amine] | 24 | 14.3
C[C@H](C[C@H]1CC[C@@H](c2ccnc3ccc(F)cc32)CC1)Nc1nc2cccnc2o1 [Example 30, N-((R)-1-((cis)-4-(6-fluoroquinolin-4-yl)cyclohexyl)propan-2-yl)oxazolo[5,4-b]pyridin-2-amine] | 23.5 | 19.1
C[C@H](C[C@H]1CC[C@@H](c2ccnc3ccc(F)cc32)CC1)Nc1ncnc2cc(C#N)ccc12 [Example 1, 4-(((R)-1-((cis)-4-(6-fluoroquinolin-4-yl)cyclohexyl)propan-2-yl)amino)quinazolin-7-carbonitrile] | 16 | –
C[C@H](C[C@H]1CC[C@@H](c2ccnc3ccc(F)cc32)CC1)Nc1ncnc2cc(Cl)ccc12 [Example 3, 7-chloro-N-((R)-1-((cis)-4-(6-fluoroquinolin-4-yl)cyclohexyl)propan-2-yl)quinazolin-4-amine] | 14 | –
C[C@H](C[C@H]1CC[C@@H](c2ccnc3ccc(F)cc32)CC1)Nc1cc(=O)oc2cc(Cl)ccc12 [Example 8, 7-chloro-4-(((R)-1-((cis)-4-(6-fluoroquinolin-4-yl)cyclohexyl)propan-2-yl)amino)-2H-chromen-2-one] | 5.9 | –
C[C@H](C[C@H]1CC[C@H](c2ccnc3ccc(F)cc32)CC1)Nc1cc(=O)oc2cc(Cl)ccc12 [Example 6, 7-chloro-4-(((R)-1-((trans)-4-(6-fluoroquinolin-4-yl)cyclohexyl)propan-2-yl)amino)-2H-chromen-2-one] | 17 | –

The remaining compounds from weak to strong by IC50 (IDO1 [1]), led by results:

IC50 (IDO1 [1]) [nM] | IC50 (IDO1 [2]) [nM] | Structure (SMILES)
27 | 7.6 | C[C@H](C[C@H]1CC[C@@H](c2ccnc3ccc(F)cc32)CC1)Nc1nc2ncc(Cl)cc2s1 [Example 23, 6-chloro-N-((R)-1-((cis)-4-(6-fluoroquinolin-4-yl)cyclohexyl)propan-2-yl)thiazolo[4,5-b]pyridin-2-amine]
19 | – | C[C@H](C[C@H]1CC[C@H](c2ccnc3ccc(F)cc32)CC1)Nc1cc(=O)oc2ccc(Br)cc12 [Example 7, 6-bromo-4-(((R)-1-((trans)-4-(6-fluoroquinolin-4-yl)cyclohexyl)propan-2-yl)amino)-2H-chromen-2-one]
18 | – | C[C@H](C[C@H]1CC[C@@H](c2ccnc3ccc(F)cc32)CC1)Nc1nc2ncccc2s1 [Example 21, N-((R)-1-((cis)-4-(6-fluoroquinolin-4-yl)cyclohexyl)propan-2-yl)thiazolo[4,5-b]pyridin-2-amine]
14 | 8 | CCOc1ccc2nc(N[C@H](C)C[C@H]3CC[C@@H](c4ccnc5ccc(F)cc54)CC3)sc2c1 [Example 19, 6-ethoxy-N-((R)-1-((cis)-4-(6-fluoroquinolin-4-yl)cyclohexyl)propan-2-yl)benzo[d]thiazol-2-amine]
11.4 | 8.7 | C[C@H](C[C@H]1CC[C@@H](c2ccnc3ccc(F)cc32)CC1)Nc1nc2ncccc2o1 [Example 32, N-((R)-1-((cis)-4-(6-fluoroquinolin-4-yl)cyclohexyl)propan-2-yl)oxazolo[4,5-b]pyridin-2-amine]
11 | – | C[C@H](C[C@H]1CC[C@H](c2ccnc3ccc(F)cc32)CC1)Nc1ncnc2cc(Cl)ccc12 [Example 4, 7-chloro-N-((R)-1-((trans)-4-(6-fluoroquinolin-4-yl)cyclohexyl)propan-2-yl)quinazolin-4-amine]
10 | 9.9 | C[C@H](C[C@H]1CC[C@@H](c2ccnc3ccc(F)cc32)CC1)Nc1nc2ccc(F)cc2o1 [Example 29, 6-fluoro-N-((R)-1-((cis)-4-(6-fluoroquinolin-4-yl)cyclohexyl)propan-2-yl)benzo[d]oxazol-2-amine]
5.1 | – | CC[C@H](C[C@H]1CC[C@@H](c2ccnc3ccc(F)cc32)CC1)Nc1nc2ccc(OC)cc2s1 [Example 15, N-((R)-1-((cis)-4-(6-fluoroquinolin-4-yl)cyclohexyl)butan-2-yl)-6-methoxybenzo[d]thiazol-2-amine]
1 | – | COc1ccc2nc(N[C@H](C)C[C@H]3CC[C@@H](c4ccnc5ccc(F)cc54)CC3)sc2c1 [Example 14, N-((R)-1-((cis)-4-(6-fluoroquinolin-4-yl)cyclohexyl)propan-2-yl)-6-methoxybenzo[d]thiazol-2-amine]
